Data published in patent EP2522328A1, “Use of resveratrol and ascorbyl-2-glucoside” (DSM IP Assets B.V., priority 2011, dated 2012).

Test system: AZGP1
Experiment: Assessment of gene modulation in normal human epidermal melanocytes (NHEM), RT-qPCR on mRNA (PCR array mQPA H-Melanocyte-64)
Assay type: cell-based
Details: ascorbyl-2-glucoside 1 mg/ml
Procedure: Normal human epidermal melanocytes were cultivated for 24 hours. […] Cells were cultivated for additional 72 hours. All experimental conditions were performed in triplicate. At the end of the cultivation, the cells were harvested and washed with phosphate buffered saline (PBS) solution and immediately frozen at -80 °C. The expression of selected markers was analyzed using RT-qPCR method on mRNA extracted from cells layer for each treatment condition. The differential expression analysis was performed by PCR arrays of the screening format "mQPA H-Melanocyte-64", which focuses on 64 genes selected for their importance in pigmentation and melanocyte biology. Total RNA was extracted from each sample using TRI-Reagent®. The amount and quality of the RNA was evaluated using a lab-on-a-chip Bioanalyzer (Agilent technologies). Potential contaminants traces of DNA were removed […] The incorporation of fluorescence in amplified DNA was measured continuously during the PCR cycles. […] The value selected for RE calculations is the "output point" (Ct) of the fluorescence curve. For a given marker, the highest is the cycle number; the lowest, is the mRNA quantity. The RE value is expressed in arbitrary units (AU) according to the equation: (((1)/(2)))^NC x 10^6 [formula] Where NC is the number of cycles.

O=C1O[C@H]([C@@H](O)CO)C(O)=C1O[C@H]1O[C@H](CO)[C@@H](O)[C@H](O)[C@H]1O [Ascorbyl-2-glucoside, 2-O-[…]-D-glucopyranosyl-L-Ascorbic acid]
activation at 1000 µg/mL (Homo sapiens, Melanocyte, NHEM cells, 72 hours treatment, resveratrol 5 µg/ml, combination 5 µg/ml + 1 mg/ml, read-out: expression ratio compared to control for the gene AZGP1): 3% | down-regulation of AZGP1 (compared to untreated cells, NEHM cells, resveratrol 5 micrograms/ml, combination 5 microg/ml + 1mg/ml): no significant modulation
